Where two headings read alike, the source gives them in different places.
How the values were obtained:
[1] = test system: P. falciparum stage V gametocytes; test: Gametocytocidal ATP bioluminescence assay (single point 5 μM and 1 μM, dose-response); format: cell-based, Plasmodium falciparum; settings: for Ratio IC50 HepG2/IC50 P. falciparum: IC50 HepG2 divided by IC50 P. falciparum gametocytes
Experimental: Purified stage IV-V gametocytes were obtained as previously described [10]. Single point ATP bioluminescence assay and dose–response of positive hits was determined in accordance with the previously published protocol [10].

[2] = test system: P. falciparum asexual stages; settings: cited from earlier work
[3] = Cytotoxicity in HepG2 cells (intracellular ATP, ATPlite, 48 h); format: cell-based, human; settings: human, HepG2 cells
HepG2 cells = test: as above; format: cell-based, human; settings: IC50 HepG2 divided by IC50 P. falciparum gametocytes
[4] = Plasmodium falciparum, P. falciparum gametocytes, average, read-out: IC50 Pf Gametocytes average, IC50 (µM) average
[5] = Plasmodium falciparum, sexual stages (gametocytes), dose-response, read-out: IC50 sexual
[6] = P. falciparum asexual stages, TCAMS data, read-out: IC50 (µM) Pf asexual stages
[7] = asexual stages, TCAMS data, read-out: IC50 asexual
[8] = IC50 per ratio column head, unit inferred, read-out: Cytotoxicity in HepG2
[9] = HepG2, 48 h exposure, intracellular ATP, read-out: IC50 (μM) Cytotoxicity HepG2
[10] = sexual stages (gametocytes), dose-response, read-out: IC50 sexual
[11] = IC50 per ratio column head, unit inferred

| SMILES | Ratio IC50 HepG2/IC50 P. falciparum [1] | IC50 [1, 4] | IC50 [1, 5] | IC50 [2, 6] | IC50 ([2]; as previously determined for TCAMS, read-out: IC50 (μM) Pf Asexual stages) | IC50 [2, 7] | IC50 at 48 h [3, 8] | Ratio IC50 HepG2/IC50 P. falciparum (HepG2 cells) | IC50 at 48 h [3, 9] | IC50 [1, 10] | IC50 [3, 11] | IC50 ([1]; Plasmodium falciparum, gametocytes (GC), value as repeated in the Clusters sheet, read-out: IC50 GC) | IC50 ([1]; Plasmodium falciparum, read-out: IC50 Pf Gametocytes average, IC50 (µM) average) | IC50 ([1]; Plasmodium falciparum, read-out: IC50 sexual) | %_Inh ([1]; gametocytes, primary screen at 5 μM (S10 Table, MCSI analogs)) |
| --- | --- | --- | --- | --- | --- | --- | --- | --- | --- | --- | --- | --- | --- | --- | --- |
| CCN(CC)Cc1cc(Nc2c3ccc(Cl)cc3nc3cccc(OC)c23)ccc1O [TCMDC-139222] | >25 | 1 µM | 0.995 µM | 0.0334 µM | 0.03 µM | 0.033 µM | > 25 µM | >25 | – | – | – | – | – | – | – |
| CC(C)(C)c1ccc(CN2CCC(CNC(=O)c3cc(-c4cccc(Cl)c4)cs3)C2)cc1 (centres unmarked) [TCMDC-134446] | 19 | 0.61 µM | 0.605 µM | 1.16 µM | – | 1.16 µM | 11.3 µM | 19 | 11 µM | – | – | – | – | – | – |
| CC(C)CNCc1cccc(-c2cccc(CNCCCN3CCN(C)CC3)c2)c1 [TCMDC-140483] | >16 | 1.56 µM | – | – | – | 1.18 µM | > 25 µM | >16 | – | 1.56 µM | – | – | – | – | – |
| CCCCN(CCCC)C(=NC(=N)NCc1ccc(Cl)c(Cl)c1)NCCCCCCNC(=NC(=N)NCc1ccc(Cl)c(Cl)c1)N(CCCC)CCCC [TCMDC-131821] | 20 | 0.62 µM | – | – | – | 0.399 µM | 12.4 µM | 20 | – | 0.615 µM | – | – | – | – | – |
| CCN(CC)C(=NCCCCCCN=C(NC(=N)c1ccc(Cl)cc1)N(CC)CC)NC(=N)c1ccc(Cl)cc1 [TCMDC-131806] | 52 | 0.84 µM | – | – | – | 0.381 µM | 43.6 µM | 52 | – | – | – | – | – | – | – |
| c1ccc2c(c1)cc(CNCCCN1CCN(CCCNCc3cc4ccccc4c4ccccc34)CC1)c1ccccc12 [TCMDC-137914] | 12 | 1.11 µM | – | – | – | 0.204 µM | – | 12 | – | – | 13700 nM | – | – | – | – |
| CC(C)CCNC(=N)Nc1ccc(OCCCCCOc2ccc(NC(=N)NCCC(C)C)cc2)cc1 [TCMDC-137614] | >49 | 0.51 µM | – | – | – | 1.08 µM | > 25 µM | >49 | – | 0.507 µM | – | – | – | – | – |
| Oc1c(C(Nc2nc3ccccc3s2)c2ccc(OC(F)F)cc2)ccc2cccnc12 (centres unmarked) [TCMDC-124379] | 55 | 0.44 µM | – | – | – | 0.571 µM | 24.1 µM | 55 | – | – | – | – | – | – | – |
| CC(=NNC(=S)NCCc1ccccn1)c1ccccn1 [TCMDC-137895] | >17 | 1.49 µM | 1.5 µM | 0.32 µM | – | 0.319 µM | > 25 µM | >17 | – | – | – | 1.5 µM | – | – | – |
| Oc1ccc(CCNCCCCCCNCCc2ccc(Cl)c3ccccc23)cc1O [TCMDC-131271] | 25 | 0.53 µM | – | – | – | 0.716 µM | 13.5 µM | 25 | – | 0.533 µM | – | – | – | – | – |
| CCN(CC)C(=NC(=N)NCCCCCCNC(=N)N=C(Nc1ccc(Cl)cc1)N(CC)CC)Nc1ccc(Cl)cc1 [TCMDC-131807] | >68 | 0.37 µM | – | – | – | 0.927 µM | > 25 µM | >68 | – | 0.365 µM | – | – | – | – | – |
| CN1c2ccc([N+](=O)[O-])cc2C(C)(C)C12C=Cc1cc(Br)cc([N+](=O)[O-])c1O2 (centres unmarked) [TCMDC-124178] | >23 | 1.09 µM | – | – | – | 0.785 µM | – | >23 | – | 1.09 µM | > 25000 nM | – | – | – | – |
| CN1CCN(CCCNCc2cccc(-c3ccc(CNCCc4ccccc4)cc3)c2)CC1 [TCMDC-140643] | 44 | 0.41 µM | – | – | – | 0.781 µM | 18.2 µM | 44 | – | 0.413 µM | – | – | – | – | – |
| CCCCN(CCCC)CCCCNc1c2ccccc2nc2ccccc12 [TCMDC-137461] | 35 | 0.55 µM | – | – | – | 0.148 µM | 19 µM | 35 | – | – | – | – | – | – | – |
| COc1ccc2nc3cc(Cl)ccc3c(NCCCCCCNc3c4ccc(Cl)cc4nc4ccc(OC)cc34)c2c1 [TCMDC-137503] | >500 | 0.05 µM | – | – | – | 0.661 µM | > 25 µM | >500 | – | – | – | – | – | – | – |
| Cc1c(Cn2ncc(N3CCC(N)CC3)c(Cl)c2=O)cccc1NC(=O)Nc1ccc(-c2ccccc2)cc1 [TCMDC-141931] | 12 | 1.18 µM | – | – | – | 0.697 µM | 14.5 µM | 12 | – | 1.18 µM | – | – | – | – | – |
| N=C(N=C(NCCCCCCNC(=NC(=N)NCc1ccc(Cl)c(Cl)c1)N1CCCCC1)N1CCCCC1)NCc1ccc(Cl)c(Cl)c1 [TCMDC-131816] | >68 | 0.37 µM | – | – | – | 0.567 µM | > 25 µM | >68 | – | 0.365 µM | – | – | – | – | – |

| SMILES | Ratio IC50 HepG2/IC50 P. falciparum [1] | IC50 [1, 4] | IC50 [1, 5] | IC50 [2, 6] | IC50 ([2]; as previously determined for TCAMS, read-out: IC50 (μM) Pf Asexual stages) | IC50 [2, 7] | IC50 at 48 h [3, 8] | Ratio IC50 HepG2/IC50 P. falciparum (HepG2 cells) | IC50 at 48 h [3, 9] | IC50 [1, 10] | IC50 [3, 11] | IC50 ([1]; Plasmodium falciparum, gametocytes (GC), value as repeated in the Clusters sheet, read-out: IC50 GC) | IC50 ([1]; Plasmodium falciparum, read-out: IC50 Pf Gametocytes average, IC50 (µM) average) | IC50 ([1]; Plasmodium falciparum, read-out: IC50 sexual) | %_Inh ([1]; gametocytes, primary screen at 5 μM (S10 Table, MCSI analogs)) |
| --- | --- | --- | --- | --- | --- | --- | --- | --- | --- | --- | --- | --- | --- | --- | --- |
| CCN(CC)C(=NC(=N)NCc1ccc(Cl)cc1)NCCCCCCNC(=NC(=N)NCc1ccc(Cl)cc1)N(CC)CC [TCMDC-131817] | >32 | 0.79 µM | – | – | – | 0.231 µM | > 25 µM | >32 | – | – | – | – | – | – | – |
| COc1cc(CCNC(=N)/C=C/c2ccc(Cl)cc2)ccc1Cl [TCMDC-137457] | 50 | 0.28 µM | – | – | – | 0.241 µM | 14 µM | 50 | – | – | – | – | – | – | – |
| CC(C)CNCc1cccc(-c2cccc(CN(CCN(C)C)C(=O)Nc3ccccc3)c2)c1 [TCMDC-140592] | 24 | 0.66 µM | – | – | – | 0.795 µM | 15.8 µM | 24 | – | – | – | – | – | – | – |
| CCOc1ccc2nc3cc(NC(=O)c4ccco4)ccc3c(N)c2c1 [TCMDC-125004] | 56 | 0.19 µM | 0.185 µM | 0.8 µM | – | 0.802 µM | 10.3 µM | 56 | 10 µM | – | – | – | – | – | – |
| CC(C)CCNC(=N)Nc1ccc(OCCCOc2ccc(NC(=N)NCCC(C)C)cc2)cc1 [TCMDC-137615] | >86 | 0.29 µM | – | – | – | 0.2 µM | > 25 µM | >86 | – | – | – | – | – | – | – |
| Cc1cccc2nc(-c3ccc(-c4ccc(CNCc5ccc(CN)cc5)cc4)s3)[nH]c12 [TCMDC-132809] | 28 | 0.86 µM | – | – | – | 0.442 µM | 24 µM | 28 | – | 0.855 µM | – | – | – | – | – |
| CC1CCCCN1CCCNc1nc(NCc2ccccc2)c2ccccc2n1 (centres unmarked) [TCMDC-137771] | 143 | 0.14 µM | – | 0.95 µM | – | 0.953 µM | 20.1 µM | 143 | 20 µM | – | – | – | – | – | – |
| COc1cc2c(c(Cl)c1OC)CCN(C(=O)C(F)(F)F)CC2c1ccccc1 (centres unmarked) [TCMDC-132071] | >13 | 1.95 µM | – | 0.44 µM | – | 0.441 µM | > 25 µM | >13 | – | – | – | – | – | – | – |
| CN1CCN(CCCN(Cc2ccc(-c3cccc(CNC4CCCC4)c3)cc2)C(=O)Nc2ccccc2)CC1 [TCMDC-140605] | 81 | 0.18 µM | – | – | – | 1.12 µM | 14.3 µM | 81 | – | 0.177 µM | – | – | – | – | – |
| FC(F)(F)c1ccc2[nH]c(-c3ccc(-c4cccc(CNCCN5CCNCC5)c4)cc3)nc2c1 [TCMDC-132864] | 16 | 1.08 µM | – | 1.03 µM | – | 1.03 µM | 17.5 µM | 16 | 18 µM | – | – | – | – | – | – |
| COc1ccc2c(c1)CC(C)(C)NC2CCCCCCCCC1NC(C)(C)Cc2cc(OC)ccc21 (centres unmarked) [TCMDC-137935] | 7 | 0.79 µM | – | – | – | 1.3 µM | 5.32 µM | – | – | – | – | – | – | – | – |
| FC(F)(F)c1ccc2[nH]c(-c3ccc(-c4ccc(CNCCN5CCNCC5)cc4)s3)nc2c1 [TCMDC-132862] | 5.37 | – | – | – | – | 0.91 µM | 6.9 µM | – | – | – | – | – | 1.29 µM | 1.28 µM | 105.547% |
| S=C(NN=Cc1ccccn1)Nc1ccc(Cl)c(Cl)c1 [TCMDC-125522] | 130 | 0.07 µM | – | – | – | 0.768 µM | 9.1 µM | – | – | – | – | – | – | – | – |
| COc1cc2nc(NCc3cccc(CNC(=O)c4ccc(-c5ccc(C(C)=O)cc5)cc4)c3)nc(N)c2cc1OC.O=C(O)C(F)(F)F [TCMDC-138177] | 5 | 2 µM | – | – | – | 0.118 µM | 9.5 µM | – | – | 2 µM | – | – | – | – | – |
| CCCCCCCCN1CCN(CCCCCCNc2c3ccccc3nc3ccccc23)CC1 [TCMDC-138015] | 12 | 0.25 µM | – | – | – | 0.162 µM | 3.1 µM | – | – | – | – | – | – | – | – |
| S=C(NN=Cc1ccccn1)NC1CC2C=CC1C2 (centres unmarked) [TCMDC-125752] | 6 | 0.11 µM | – | – | – | 0.721 µM | 0.7 µM | – | – | 0.112 µM | – | – | – | – | – |

— paper PMC4552634, “A New Set of Chemical Starting Points with Plasmodium falciparum Transmission-Blocking Potential for Antimalarial Drug Discovery” (PLoS ONE, 2015)
